Consider three compounds from patent publication US10849956B2, “Glycopeptide compositions” (priority 2014, dated 2020).

Converted amounts (≈) assume the structure as drawn. Like-named read-outs stand apart in the source and are kept apart here.

For data set [1], the system named is Streptococcus pnemoniae ATCC 49619. The data set can be described thus: Antibacterial susceptibility testing, broth dilution method (CLSI). It is filed as cell-based. On the procedure: (§1) Testing was performed using broth dilution method according to Clinical and Laboratory Standards Institute (CLSI) guidelines M100-S23/S24; M07-A9, the disclosure of which is herein incorporated by reference.
(§2) The antibiotic activity of eight aqueous pharmaceutical compositions was determined and compared to the activity of the injectable reference finished product, Vancocin, manufactured by Flynn Pharma Ltd. Antibiotic activity was determined against quality control strains: Staphylococcus aureus ATCC 29213, Enterococcus faecalis ATCC 29212 and Streptococcus pnemoniae ATCC 49619.
(Broth dilution looks for growth in wells or tubes with falling amounts of substance.)

For data set [2] the following is noted: cited from earlier work.
Data set [3] has as its system Enterococcus faecalis ATCC 29212. The data set can be described thus: Antibacterial susceptibility testing, broth dilution method (CLSI). It is filed as cell-based. Conditions: ATCC29212, Table 6, solutions stored at 25 degrees Celsius for the test period in days indicated. On the procedure: as §1, §2
The subject of data set [4] is Staphylococcus aureus ATCC 29213. The description is as above. Format: cell-based. Conditions: ATCC29213, Table 6, solutions stored at 25 degrees Celsius for the test period in days indicated. As for the experimental part:
as §1, §2

The mark [5] stands for this setting: multiple dosing of 500 mg Vancomycin infused over 30 minutes.

For `CN[C@H](CC(C)C)C(=O)N[C@H]1C(=O)N[C@@H](CC(N)=O)C(=O)N[C@H]2C(=O)N[C@H]3C(=O)N[C@H](C(=O)N[C@H](C(=O)O)c4cc(O)cc(O)c4-c4cc3ccc4O)[C@H](O)c3ccc(c(Cl)c3)Oc3cc2cc(c3O[C@@H]2O[C@H](CO)[C@@H](O)[C@H](O)[C@H]2O[C@H]2C[C@](C)(N)[C@H](O)[C@H](C)O2)Oc2ccc(cc2Cl)[C@H]1O` [Vancomycin USP standard, Vancomycin], the MIC in data set [1] (read-out: Streptococcus pneumoniae MIC (μg/mL)) was 0.125 µg/mL (≈ 0.0863 µM).

Regarding `CN[C@H](CC(C)C)C(=O)N[C@H]1C(=O)N[C@@H](CC(N)=O)C(=O)N[C@H]2C(=O)N[C@H]3C(=O)N[C@H](C(=O)N[C@@H](C(=O)O)c4cc(O)cc(O)c4-c4cc3ccc4O)[C@H](O)c3ccc(c(Cl)c3)Oc3cc2cc(c3O[C@@H]2O[C@@H](CO)[C@@H](O)[C@H](O)[C@@H]2O[C@@H]2C[C@](C)(N)[C@H](O)[C@@H](C)O2)Oc2ccc(cc2Cl)[C@H]1O` [Vancomycin], the “mean plasma concentration immediately after infusion” value in data set [2] (intravenous infusion of 1 gram Vancomycin (15 mg/kg) over 60 minutes) was 63 micrograms/mL. Also, in data set [2] (setting [5]), the “mean plasma concentration at the completion of infusion” value is recorded as “about 49 microgram/mL”, the “mean plasma concentration six hours after infusion” value is on record as “about 10 microgram/mL” and the “mean plasma concentration two hours after infusion” value is given as “about 19 microgram/mL”.

In the case of `CC1(C)S[C@@H]2[C@H](NC(=O)[C@H](N)c3ccc(O)cc3)C(=O)N2[C@H]1C(=O)O` [Amoxicillin USP standard, Amoxicillin], the MIC in data set [3] was 0.5 µg/mL (≈ 1.37 µM); in data set [4], 1 µg/mL (≈ 2.74 µM); in data set [1] (Table 6, solutions stored at 25 degrees Celsius for the test period in days indicated, read-out: Streptococcus pneumoniae MIC) it was 0.06 µg/mL (≈ 0.164 µM).
